Data from patent US20030134342A1, “Binding-specific peptides, binding-specific carrier molecules, and uses thereof” (priority 2001, published 2003).

Assays:
AML bone marrow cells = assay: Methylcellulose culture of AML bone marrow cells with peptides: proliferation (colonies) and differentiation (morphology); type: cell-based, human; details: for Activation of Proliferation GM-CSF / Cell Differentiation GM-CSF: with GM-CSF; for Activation of Proliferation (Patient No.) +GM-CSE: peptide with GM-CSF; for induction of differentiation of the patient cells (FIG. 8): AML bone marrow cells, 14 days methylcellulose; for Activation of Differentiation: patient numbers
Procedure: The effect of various peptides were analyzed for their biological activity on cells from a patient with acute myelogenous leukemia. The AML cells were cultured into a semi-solid medium of methylcellulose in order to determine the cloning efficiency and the differentiation of the cells. The various peptides were introduced into the semi-solid cell culture at a concentration of 10^−4 M (0.1 mM) peptide. After 14 days continuous incubation of the cell cultures, the morphology of the cells were analyzed. The data are shown in FIG. 7 for the cultures and show the percentage of immature cells in the culture (solid black), the percentage of small myeloblasts (solid white), the percentage of young cells (dark gray), and the relative percentage of monocytes to […] (light gray). The data regarding the biological response of AML bone marrow cells in the presence of the various peptides is shown in the table below.

CML cells = assay: ELISA binding of phage displaying peptides to fixed cells: CML cells; parameters: species or system human; details: in words
Procedure: (§1) Preliminary experiments were performed to identify specific peptides by using cells from patients diagnosed with CLL, CML, and AML. The screening was performed by incubating the cells with the phage-peptides from the library. This incubation allows interaction between the peptide and the cell. The binding step was followed by several washes to eliminate free phage. Phage bound on the cell surface was eluted.
(§2) After the last round of binding with one cell type, the eluted phage was plated on an agar plate with the appropriate selection antibiotics. Each individual colony, corresponding to one individual peptide sequence, was amplified in a 96-well plate. After purification, these peptides were tested for their ability to bind to the cells in a microtiter plate by ELISA.
(§3) Each peptide was dispensed in a 96-well plate, containing cells previously fixed. Each colony was tested in a triplicate assay with the appropriate controls. After incubation of cells with an individual clone, the wells were washed to eliminate free phage. The bound phages were detected by using a monoclonal anti-M13 antibody/horseradish peroxidase (HRP) conjugate. After addition of the HRP substrate, the intensity of the coloration was measured by spectrophotometry. The light absorbance values (optical density values, O.D. values) are proportional to the number of phage bound to the cells.
(§4) The binding to various cell types were examined to evaluate the cellular specificity of the phage clones. For example, the clones from phage eluted from CLL patient cells were assayed for their ability to bind cells from an AML patient. Cells from normal donors (non-leukemic) were also evaluated to ascertain leukemia cell specificity.
(§5) Peripheral blood and bone marrow samples were collected from patients after informed consent. The samples were collected in tubes containing sodium citrate. Mononuclear cells were isolated by Ficoll-Hypaque density gradient separation and collection of the cells at a density of 1.077 g/mL.
(§6) The wells of a 96-well plate were pre-treated with 100 μL of poly-L-lysine (0.01 mg/mL in phosphate-buffered saline, 120 mM NaCl, 2.7 mM KCl, 10 mM phosphate buffer, “PBS”) for 2-16 hours at room temperature. After draining the poly-L-lysine from the wells, the excess poly-L-lysine was removed from the wells by flicking. The cells were washed with PBS, then suspended in PBS and diluted to a final concentration of […]. The cell suspension (200 μL; 250,000 cells) were added to each well needed for the assay.
(§7) The plates were centrifuged at 500 g for about 5 minutes in a microplate carrying centrifuge when available. The cells were fixed to the wells through the addition of glutaraldehyde (100 μL of 0.5%) and incubating at room temperature for about an hour. The glutaraldehyde was removed and the cell-coated wells washed once with PBS. Alternatively, the cells were permitted to settle to the well bottoms for about 4 hours at 37° C., and the glutaraldehyde fixative was added after removing the PBS.
(§8) A glycine solution (200 μl of 0.1 M glycine in PBS) containing bovine serum albumin (BSA; 1%) was added to the wells and permitted to incubate for 30 minutes to block excess glutaraldehyde. The glycine was removed, and the cell-coated wells washed once with PBS. A sodium pyrophosphate solution (200 μL of 0.3 mg/mL NaPPi) was added to the wells and incubated for an hour at room temperature to neutralize lysine charges. The pyrophosphate solution was removed and the wells washed once with PBS. Multiwell microtiter plates with cell-coated wells were stored at 4° C. with fresh PBS solution in the coated wells.
(§9) The cells to be studied for binding were suspended in PBS and adsorbed onto to a poly-L-lysine pretreated 96-well plate and kept at 4° C. The PBS was removed from the wells and an H2O2 solution in PBS (6% H2O2 in 200 μL/well) was added. […]

AML cells = assay: ELISA binding of phage displaying peptides to fixed cells: AML cells; parameters: species or system human; details: in words
Procedure: as §1, §2, §3, §4, §5, §6, §7, §8, §9

[1] = system: normal peripheral blood cells (lymphocytes and granulocytes); assay: ELISA binding of phage displaying peptides to fixed cells: normal peripheral blood cells; parameters: species or system human; details: in words
Procedure: as §1, §2, §3, §4, §5, §6, §7, §8, §9

CLL cells = assay: ELISA binding of phage displaying peptides to fixed cells: CLL cells; parameters: species or system human; details: in words
Procedure: as §1, §2, §3, §4, §5, §6, §7, §8, §9

[2] = system: all myeloid cells, both malignant and nonmalignant; assay: ELISA binding of phage displaying peptides to fixed cells: all myeloid cells; parameters: species or system human; details: in words
Procedure: as §1, §2, §3, §4, §5, §6, §7, §8, §9

[3] = system: human bone marrow AML cells; assay: Effect of phage-peptides on differentiation, cell number and viability of freshly obtained AML patient bone marrow cells cultured seven days; type: cell-based; details: for Number of Cells / Percent Differentiation: phage-peptides
Description: The effect of various phage-peptides were studied on the differentiation of cells from two AML patients.

[4] = fraction, not explained, peptide alone
[5] = numbers of the AML patients whose cells responded
[6] = peptides in bacteriophage, AML cells cultured seven days in vitro

Row | Sequence | Activation of Proliferation (AML bone marrow cells; [4]) | Cell Differentiation (AML bone marrow cells; [4]) | Activation of Proliferation GM-CSF (AML bone marrow cells; fraction, not explained) | Cell Differentiation GM-CSF (AML bone marrow cells; fraction, not explained) | binding of phage displaying the peptide to CML cells (CML cells) | binding of phage displaying the peptide to AML cells (AML cells) | also measured
1 | CDEKRGPNEC [B4 C10] | 1/6 | 2/4 | 1/2 | 0/2 | – | – | Activation of Proliferation (Patient No.) (AML bone marrow cells; numbers of the AML patients whose cells responded, peptide alone, 10^−4 M, 14 days): 9; Activation of Proliferation (Patient No.) +GM-CSE (AML bone marrow cells; [5]): 11
2 | CEFQQWSGKC [G5 12-8B] | – | – | – | – | bind | bind | binding of phage displaying the peptide to blood cells (lymphocytes or granulocytes) [1]: bind; binding of phage displaying the peptide to CLL cells (CLL cells): bind; binding of phage displaying the peptide to all myeloid cells, both malignant and nonmalignant [2]: bind
3 | CIEETAAKGC [Peptide A2A, A2 with R replaced by A] | 4/11 | 3/8 | 2/4 | 1/4 | – | – | Inhibition of Proliferation (AML bone marrow cells; [4]): 1/11; activity on cell differentiation (FIG. 9, another example) (AML bone marrow cells; in words): have a biological activity; activity on cell differentiation compared with the peptide with cysteine residues (FIG. 8) (AML bone marrow cells; in words): higher activity; induction of differentiation of the patient cells (FIG. 8) (AML bone marrow cells; in words): able to induce the differentiation; Inhibition of Proliferation (AML bone marrow cells; numbers of the AML patients whose cells responded, peptide alone): 10; Activation of Differentiation (AML bone marrow cells): 3
4 | CNELHMKQHC [G7 12-8B] | 2/6 | 4/5 | 0/2 | 0/2 | – | – | –
5 | CNHVCSRLGC [B6 12-8B] | 5/14 | 3/13 | 3/5 | 2/5 | – | – | Inhibition of Proliferation (AML bone marrow cells; [4]): 3/14
6 | CNNATFEDGC [G2 12-8A] | 6/14 | 2/12 | 2/5 | 2/5 | – | – | Inhibition of Proliferation (AML bone marrow cells; [4]): 1/14
7 | CNNATVEDEC [C8 12-8B] | 2/8 | 1/8 | 1/2 | 1/2 | – | – | –
8 | DEKRGPNE [B4(1)] | – | – | – | – | bind | bind | Number of Cells ([3]; Patient 1): 1.3 106; Number of Cells ([3]; Patient 2): 0.25 106; Percent Differentiation ([3]; Patient 2): 53%; Percent differentiated in Specimen 2 [3, 6]: 53%
9 | EFQQWSGK [B7(1)] | – | – | – | – | bind | bind | binding of phage displaying the peptide to CLL cells (CLL cells): not
10 | EFQQWSGK [G2 11-24] | – | – | – | – | bind and binds | bind and binds | Number of Cells ([3]; Patient 1): 1.11 106; Percent Differentiation ([3]; Patient 1): 16.2%; Number of Cells ([3]; Patient 2): 0.25 106; Percent Differentiation ([3]; Patient 2): 39%; Percent differentiated in Specimen 1 ([3]; peptides in bacteriophage, AML cells cultured seven days in vitro, Specimen 1): 16%; Percent differentiated in Specimen 2 [3, 6]: 39%
11 | EFQQWSGK [G5 12-8B no Cys] | – | – | – | – | – | – | Activation of Differentiation (AML bone marrow cells): 3
12 | EFQQWSGK [H3 11-24] | – | – | – | – | – | – | binding of phage displaying the peptide to CLL cells (CLL cells): bind
13 | IEETARKG [A2 11-24 no Cys] | 4/14 | 4/13 | 1/2 | 2/2 | – | – | activity on cell differentiation compared with the peptide with cysteine residues (FIG. 8) (AML bone marrow cells; in words): higher activity; induction of differentiation of the patient cells (FIG. 8) (AML bone marrow cells; in words): able to induce the differentiation; Activation of Proliferation (Patient No.) +GM-CSE (AML bone marrow cells; [5]): 11
